Patent US20210177796A1, “COMPOSITION FOR PREVENTING OR TREATING INFLAMMATORY DISEASES, CONTAINING MARINE FUNGUS PENICILLIUM SP. SF-5859-DERIVED CURVULARIN-TYPE METABOLITES” (KOREA INSITITUTE OF OCEAN SCIENCE AND TECHNOLOGY, priority 2017, published 2021)
Where two headings read alike, the source gives them in different places.

Columns and labels:
Assay type in all cases: cell-based
[1] = system: NO production in LPS-treated RAW 264.7 macrophages; experiment: Inhibition of NO (nitrite) production in LPS-treated RAW264.7 macrophages, Griess reaction; settings: RAW 264.7 macrophages pre-treated 3 hours, then LPS (1 μg/mL) 24 hours
Description: As an indicator of NO production in RAW264.7 macrophages, production of nitrite, which is a stable end-product of NO oxidation, was evaluated. The concentration of nitrite in conditioned media was determined based on the Griess reaction.
(§1) In the present example, RAW264.7 macrophages were pre-treated for 3 hours in the medium containing non-toxic concentrations (Table 1) of each compound (Formula 1 to 4), and then LPS (1 μg/mL) was treated for 24 hours. According to the LPS stimulation of RAW264.7 macrophages, the production of NO and PGE2 was increased, and the effects of all compounds on the production levels of NO and PGE2 were evaluated by the Griess reaction and a PGE2 kit, respectively.

[2] = system: PGE2 production in LPS-treated RAW 264.7 macrophages; experiment: Inhibition of PGE2 production in LPS-treated RAW264.7 macrophages, PGE2 ELISA kit; settings: RAW 264.7 macrophages pre-treated 3 hours, then LPS (1 μg/mL) 24 hours
Description: RPMI1640, fetal bovine serum (FBS), and other tissue culture reagents were purchased from Gibco BRL Co. (Grand Island, N.Y., USA). All other chemicals were obtained from Sigma-Aldrich Co. (St. Louis, Mo., USA). Primary antibodies (COX-2: sc-1745; iNOS: sc-650; IκB-α: sc-371; p-IκB-α: sc-8404; p50: sc-7178; p65: sc-8008, Santa Cruz Biotechnology, Dallas, Tex., USA, p-ERK: #9101; ERK: #9102; p-JNK: #9251; JNK: #9252S; p-p38: #9211; p38: 9212S, Cell Signaling Technology, Danvers, Mass., USA) and secondary antibodies (mouse: ap124p; goat: ap106p; rabbit: ap132p, Millipore, Billerica Mass., USA) were used. Enzyme-linked immunosorbent assay (ELISA) kits for PGE2 were purchased from R and D Systems, Inc. (Minneapolis, Minn., USA).
as §1

RAW264.7 macrophages = experiment: Cytotoxicity by MTT assay
Description: In the present example, the cytotoxicity of each of the compounds of Formula 1 to 4 was confirmed in RAW264.7 macrophages by MTT assay.
RAW264.7 macrophages were maintained at a density of 5×10^5 cells/mL in RPMI1640 medium supplemented with 10% heat-inactivated FBS, penicillin G (100 units/mL), streptomycin ([…]), and L-glutamine (2 mM), and were incubated at 37° C. in a humidified atmosphere containing 5% CO2. To determine cell viability, cells (1×10^5 cells/well in 96-well plates) were incubated with 3-(4,5-dimethylthiazol-2-yl)-2,5-diphenyltetrazolium bromide (MTT) at a final concentration of 0.5 mg/mL for 3 hours, and the formazan formed was dissolved in acidic 2-propanol. The optical density was measured at 540 nm with a microplate reader (BioRad, Hercules, Calif., USA). The optical density of the formazan formed in control (untreated) cells was considered to represent 100% viability.

iNOS = iNOS protein expression in LPS-stimulated RAW264.7 macrophages; settings: pre-treated 3 hours, LPS 24 hours; FIG. 1(a)
Description: (§2) Therefore, the inventors of the present invention further tested whether the inhibitory effects of the compound of Formula 3 against NO and PGE2 productions are correlated with the protein expression of pro-inflammatory enzymes (e.g., iNOS or COX-2, respectively), which are known to catalyze the production of NO and PGEs in LPS-stimulated cells. RAW264.7 macrophages were pre-treated with the indicated concentrations of the compound of Formula 3 for 3 hours, and then stimulated with LPS for 24 hours. The presence of the compound of Formula 3 led to the attenuation of the excessive protein expression of iNOS and COX-2 in a dose-dependent manner (see FIG. 1(a)).

COX-2 = COX-2 protein expression in LPS-stimulated RAW264.7 macrophages; settings: pre-treated 3 hours, LPS 24 hours; FIG. 1(a)
Description: as §2

IL-1β = IL-1β mRNA expression in LPS-induced cells, RT-qPCR; settings: pre-treated 3 hours, LPS (1 μg/mL) 6 hours; FIG. 1(b)
Description: (§3) In addition, upon stimulation by LPS, macrophages can trigger the production of pro-inflammatory cytokines such as TNF-α and ILs. The overproduction of these cytokines contributes to the pathogenesis of inflammatory diseases. Thus, the inventors of the present invention further evaluated the effects of the compound of Formula 3 on the mRNA expression of pro-inflammatory cytokines in the LPS-induced cells. The cells were pre-treated with indicated concentration for 3 hours, followed by LPS stimulation (1 μg/mL) for 6 hours. The mRNA expression of pro-inflammatory cytokines was determined by RT-qPCR.

IL-6 = IL-6 mRNA expression in LPS-induced cells, RT-qPCR; settings: pre-treated 3 hours, LPS (1 μg/mL) 6 hours; FIG. 1(c)
Description: as §3

TNF-α = TNF-α mRNA expression in LPS-induced cells, RT-qPCR; settings: pre-treated 3 hours, LPS (1 μg/mL) 6 hours; FIG. 1(d)
Description: as §3

NF-κB (p50 and p65) = experiment: NF-κB activation: nuclear translocation of p50 and p65 in LPS-induced RAW264.7 macrophages; settings: FIG. 2(a)
IκB-α = IκB-α phosphorylation and degradation in LPS-induced RAW264.7 macrophages; settings: FIG. 2(b)
Description: (§4) In the present example, a NF-κB ELISA kit (Active Motif) was used to test the nuclear extracts and determine the degree of NF-κB binding. […] Furthermore, when the cells were treated with LPS alone, the phosphorylation level of IκB-α was increased, whereas the compound of Formula 3 attenuated this phosphorylation of IκB-α. In addition, the compound of Formula 3 blocked the degradation of IκB-α in a concentration-dependent manner (see FIG. 2(b)). In line with these, LPS-induced DNA binding activity of NF-κB was declined in the nuclear extracts of the cells co-treated with the compound of Formula 3 (see FIG. 2(c)).

NF-κB = experiment: DNA binding activity of NF-κB in nuclear extracts, NF-κB ELISA kit; settings: FIG. 2(c)
Description: as §4

p38 = experiment: LPS-induced p38 phosphorylation in RAW264.7 macrophages; settings: LPS 30 minutes; FIG. 3(a)
Description: (§5) Mitogen-activated protein kinase (MAPK) pathways are known to be involved in the expression of pro-inflammatory cytokines in macrophages. Thus, the effect of the compound of Formula 3 on the LPS-induced phosphorylation of MAPK was examined.

[3] = system: c-Jun N-terminal kinase (JNK); experiment: LPS-induced JNK phosphorylation in RAW264.7 macrophages; settings: LPS 30 minutes; FIG. 3(b)
Description: as §5

[4] = system: extracellular signal-regulated kinase (ERK); experiment: LPS-induced ERK phosphorylation in RAW264.7 macrophages; settings: LPS 30 minutes; FIG. 3(c)
Description: as §5

5,7-Di-O-acetylcurvularin [Formula 1e]
IC50 [1]: 77.5 ± 9.3 µM | IC50 [2]: > 80 µM | Cytotoxicity (μM): the maximum concentration not affecting cell viability (RAW264.7 macrophages): >80 µM

5,7-Di-O-methylcurvularin [Formula 1c]
IC50 [1]: 60.6 ± 16.4 µM | IC50 [2]: 49.4 ± 14 µM | Cytotoxicity (μM): the maximum concentration not affecting cell viability (RAW264.7 macrophages): >80 µM

CC1CCCCCC(=O)c2c(O)cc(O)cc2CC(=O)O1 (stereo not drawn) [Formula 1a, curvularin]
IC50 [1]: 18.1 ± 5.2 µM | IC50 [2]: 18.7 ± 4.9 µM | Cytotoxicity (μM): the maximum concentration not affecting cell viability (RAW264.7 macrophages; RAW264.7 macrophages, MTT): 40 µM

COc1cc(O)c2c(c1)CC(=O)O[C@@H](C)CCCCCC2=O [Formula 1b, 5-O-methylcurvularin]
IC50 [1]: > 80 µM | IC50 [2]: 40.2 ± 5.1 µM | Cytotoxicity (μM): the maximum concentration not affecting cell viability (RAW264.7 macrophages; RAW264.7 macrophages, MTT): >80 µM

CC(=O)Oc1cc(O)c2c(c1)CC(=O)O[C@@H](C)CCCCCC2=O [Formula 1d, 5-O-acetylcurvularin]
IC50 [1]: 46.9 ± 3.7 µM | IC50 [2]: 73.7 ± 17.1 µM | Cytotoxicity (μM): the maximum concentration not affecting cell viability (RAW264.7 macrophages): >80 µM

C[C@H]1CCC[C@@H](O)CC(=O)c2c(O)cc(O)cc2CC(=O)O1 [Formula 2a, (11R,15S)-11-hydroxycurvularin]
IC50 [1]: 11.5 ± 2.7 µM | IC50 [2]: 15.6 ± 5.2 µM | Cytotoxicity (μM): the maximum concentration not affecting cell viability (RAW264.7 macrophages; RAW264.7 macrophages, MTT): 40 µM

C[C@H]1CCC[C@H](O)C(=O)c2c(O)cc(O)cc2CC(=O)O1 [Formula 2b, (11S,15S)-11-hydroxycurvularin]
IC50 [1]: 7.2 ± 1.6 µM | IC50 [2]: 14.1 ± 4 µM | Cytotoxicity (μM): the maximum concentration not affecting cell viability (RAW264.7 macrophages; RAW264.7 macrophages, MTT): 40 µM

CO[C@@H]1CCC[C@H](C)OC(=O)Cc2cc(O)cc(O)c2C(=O)C1 [Formula 2c, (11R,15S)-11-methoxycurvularin]
IC50 [1]: 2.6 ± 0.4 µM | IC50 [2]: 3 ± 1.3 µM | Cytotoxicity (μM): the maximum concentration not affecting cell viability (RAW264.7 macrophages; RAW264.7 macrophages, MTT): 20 µM

CO[C@H]1CCC[C@H](C)OC(=O)Cc2cc(O)cc(O)c2C1=O [Formula 2d, (11S,15S)-11-methoxycurvularin]
IC50 [1]: 3.5 ± 0.5 µM | IC50 [2]: 6 ± 1.9 µM | Cytotoxicity (μM): the maximum concentration not affecting cell viability (RAW264.7 macrophages; RAW264.7 macrophages, MTT): 20 µM

C[C@H]1CCC/C=C/C(=O)c2c(O)cc(O)cc2CC(=O)O1 [Formula 3, (10E,15S)-10,11-dehydrocurvularin]
IC50 ([1]; Mus musculus, RAW264.7): 1.9 ± 0.3 µM | IC50 ([2]; Mus musculus, RAW264.7): 2.7 ± 0.4 µM | Cytotoxicity (μM): the maximum concentration not affecting cell viability (RAW264.7 macrophages; RAW264.7 macrophages, MTT): 20 µM | Protein expression of iNOS (iNOS): attenuation | Protein expression of COX-2 (COX-2): attenuation | mRNA expression of IL-1β (IL-1β): significantly suppressed | mRNA expression of IL-6 (IL-6): significantly suppressed | mRNA expression of TNF-α (TNF-α): significantly suppressed | Nuclear translocation of p50 and p65 (NF-κB (p50 and p65)): dose-dependently suppressed | Degradation of IκB-α (IκB-α): blocked | Phosphorylation of IκB-α (IκB-α): attenuated | LPS-induced DNA binding activity of NF-κB (NF-κB): declined | Phosphorylation of p38 (p38): did not suppress | Phosphorylation of JNK [3]: did not suppress | Phosphorylation of ERK [4]: did not suppress

C[C@H]1CCC/C=C\C(=O)c2c(O)cc(O)cc2CC(=O)O1 [Formula 4, (10Z,15S)-10,11-dehydrocurvularin]
IC50 ([1]; Mus musculus, RAW264.7): 4.4 ± 0.8 µM | IC50 ([2]; Mus musculus, RAW264.7): 6.2 ± 1.1 µM | Cytotoxicity (μM): the maximum concentration not affecting cell viability (RAW264.7 macrophages; RAW264.7 macrophages, MTT): 20 µM
